How the values were obtained:
CD11b/CD18 [1] = assay: Cell adhesion assay, primary rat macrophages on immobilized fibrinogen; type: cell-based; conditions: vs non-activating Ca2+ and Mg2+
Protocol: (§1) K562 cells stably transfected with plasmid encoding wild-type integrin CD11b/CD18 (K562 WT cells) have been described previously and were maintained in Iscove's Modified Dulbecco's Medium (IMDM) supplemented with 10% FBS and G418 (0.5 mg/ml). The murine macrophage cell line (RAW 264.7 cells) was obtained from ATCC and the cells were maintained in DMEM supplemented with 10% heat-inactivated FBS according to the manufacturer's instructions. The primary rat peritoneal macrophages were isolated from the wild type Fisher 344 rats that had been previously injected with 5 mL of Brewer's thioglycolate broth (Sigma-Aldrich). Macrophage purity was directly analyzed by single channel flow cytometry using rat macrophage specific monoclonal antibodies ED1 (AbD Serotec, Raleigh, N.C.), WT.5 (BD Biosciences) and His36 (BD Biosciences). Purity was typically >85%. Macrophages were used in assays immediately upon isolation.
(§2) Cell adhesion assays using K562 WT, murine RAW 264.7 cells and the primary rat macrophages were performed as previously described and used immobilized fibrinogen as the ligand of CD11b/CD18 [49]. […] The remaining adherent cells were fixed using 4% formaldehyde and quantified by imaging microscopy as previously described (22, 63). […]

[2] = tested on: RAW 264.7 macrophage cells; assay: Wound healing assay (macrophage migration); type: cell-based, murine; conditions: LA1 15 μM, M18/2 20 μg/mL, 48 hours
Protocol: Murine RAW 264.7 macrophage cells were grown in DMEM 10% FBS medium in T75 flasks to 70% confluence. The cells were detached by trypsin treatment for 10 minutes at 37° C. and evenly reseeded in 24 well plates and allowed to attain >70% confluency. A scratch was introduced horizontally across the well using 200 µL tip applying even force throughout the etching and holding the tip at approximately an 80 degree angle. The wells were subsequently washed and fresh medium containing various treatment groups was introduced. The wound was imaged using 10× objective. The cells were allowed to grow for 48 hours and the wound was reimaged at the same field after 48 hours. The average extent of wound closure was evaluated by measuring the width of the wound. The area healed was analyzed using ImageJ software and is expressed as percentage healing after 48 hours.
For FIG. 4B, RAW 264.7 cells were plated in 24-well tissue culture plates (2×10^6 cells/well) and allowed to adhere in complete media for 12 hours. […] Images of the cells in culture were obtained immediately prior to (0 hours) and after the completion of the experiment (48 hours) using an inverted phase contrast microscope attached to a video camera.
Representative data shown here are from a triplicate well experiment from one of at least two to three independent experiments. **p<0.001, ***p<0.0001.

[3] = tested on: CD11b+ macrophages in injured arteries; assay: Flow cytometric quantitation of arterial macrophages in injured arteries; type: in vivo, rat; conditions: 7 days after balloon injury; LA1 1 mg/kg/d; ED7 1 and 3.3 mg/kg/d
Protocol: Agonist treated and control balloon-injured Fisher 344 rats were sacrificed 7 days post surgery at the onset of inflammation. The injured and non-injured iliac arteries were microdissected and digested with Collagenase/Elastase mix (Worthington Biochemical, NY) in DMEM containing 2% FBS for 2 hours at 37° C. The resulting single cell suspension was washed with cold PBS containing 2% FBS and filtered through […] sieve. Cells were re-suspended cold PBS containing 2% FBS at a concentration of 10^6 cells per 100 μl and stained with biotinylated anti-rat CD11b antibody (clone WT.5, BD Biosciences) for 1 hour at 4° C. […] Cells were washed twice with the assay buffer and analyzed using FACS II Canto cytometer and the data were analyzed using FlowJo (Tree Star Inc.) software. […]
Next, to determine whether either type of agonist (chemical LA1 and biologic activating antibody) has a therapeutic advantage over the other, a head-to-head comparison was performed using this in vivo model. […] Next, the arteries were analyzed to quantify the number of infiltrated macrophages in the presence of agonists LA1 or ED7 and compared it to vehicle treated animals. The arteries were harvested from animals 7 days after balloon injury and single cell suspensions were analyzed by flow cytometry (using anti-rat CD11b antibody WT.5) to quantitate CD11b+ macrophages in each sample. […]

Diabetic nephropathy = Diabetic nephropathy model (BTBR ob/ob mouse); type: in vivo
Protocol: The efficacy of LA1 was tested in an experimental model of Diabetic nephropathy (DN), where inflammation plays a major role. It was surmised that reducing leukocyte activation, recruitment and influx can be a beneficial strategy for developing therapeutics against DN.

Human macrophages = assay: mRNA levels of pro-inflammatory factors in LPS-treated human macrophages; type: cell-based; conditions: co-treated with LPS
Protocol: It was shown that β2 integrin agonist leukdherin LA1 modulates the expression levels of various pro-inflammatory factors in cells. Human macrophages were treated with LPS in the absence or presence of LA1 in vitro and determined the levels of mRNA in the cells at various time points using Nanostring inflammation array (184 genes) and exiqon microRNA panels.

[4] = tested on: neutrophils, hepatocytes, hERG; assay: Pilot in vitro ADME assay (neutrophils, hepatocytes, hERG); conditions: at up to 100 µM
[5] = Solubility of LA1 in oral vehicle formulations and simulated biological fluids (LC-MS); type: physicochemical
Protocol: Pilot oral vehicle evaluation. […] Subsequently, re-dispersability of LA1 was tested using two simulated biological fluids—simulated gastric fluid (SGF) and Fasted State Simulated […] Fluid (FaSSIF).

CD11b/CD18 [6] = biological target: T1, CD11b/CD18 (Homo sapiens, UniProt P11215); conditions: earlier described [55]; cited from earlier work
CD11b/CD18 [7] = biological target: T1, CD11b/CD18; assay: Cell adhesion assay, K562 WT cells on immobilized fibrinogen; type: cell-based; design: K562 cells stably transfected with plasmid encoding wild-type integrin CD11b/CD18; expressed in transfected cells; conditions: vs basal Ca2+ plus Mg2+ (1 mM each); leukadherins 15 μM, mAbs 20 μg/mL, Mn2+ 1 mM
Protocol: as §1, §2

[8] = daily administration, fully diabetic animals

O=C(O)c1ccc(-c2ccc(/C=C3\SC(=S)N(Cc4ccccc4)C3=O)o2)cc1 [LA1]
adhesion of primary rat macrophages to immobilized fibrinogen (CD11b/CD18 [1]): significantly enhanced the level of macrophage adhesion | migration of LPS- or PMA-stimulated macrophages [2]: significantly, and to a similar extent, reduced the migration | migration of macrophages into the wound area, agonist alone ([2]; vs DMSO): no significant increase in the migration of macrophages | CD11b+ macrophages in injured arteries vs vehicle [3]: significantly less CD11b/CD18 macrophages | glomerular damage and glomerular mesangial sclerosis (Diabetic nephropathy; BTBR ob/ob mouse model): reduced glomerular damage and glomerular mesangial sclerosis | kidney function (Diabetic nephropathy; [8]): preserved kidney function | number of infiltrating leukocytes in the kidney (Diabetic nephropathy; [8]): significantly reduced the number of infiltrating leukocytes | mRNA levels of pro-inflammatory factors upregulated by LPS (Human macrophages): significantly reduced | adverse findings in pilot in vitro ADME assay [4]: no adverse findings | solubility in vehicle formulation ([5]; 10% Tween80, 20% ETPGS and 30% Captisol, 10 mg/mL slurry, Mg-salt): 3000 to 4000 µg/mL | solubility on re-dispersion in simulated biological fluids ([5]; SGF and FaSSIF, 10% Tween80 formulation): ~0.15 mg/mL | affinity for CD11b/CD18 (CD11b/CD18 [6]): high-affinity | adhesion of K562 WT cells to immobilized fibrinogen (CD11b/CD18 [7]): significantly increased
